Reference: US10710986B2, “PD-1/PD-L1 inhibitors” (Gilead Sciences, Inc., priority 2018, dated 2020)

Molecular target: PD-1/PD-L1 (Homo sapiens (Human), UniProt Q9NZQ7)
Assay: PD-1/PD-L1 biochemical protein-protein interaction assay (ALPHA)
Settings: 0.3 nM His tagged PD-L1, 2.5 nM biotinylated Fc-PD-1, 60 minutes at 25° C., read-out: IC50 PD-L1-PD1

Sequence of PD-1/PD-L1 (Q9NZQ7 19-238): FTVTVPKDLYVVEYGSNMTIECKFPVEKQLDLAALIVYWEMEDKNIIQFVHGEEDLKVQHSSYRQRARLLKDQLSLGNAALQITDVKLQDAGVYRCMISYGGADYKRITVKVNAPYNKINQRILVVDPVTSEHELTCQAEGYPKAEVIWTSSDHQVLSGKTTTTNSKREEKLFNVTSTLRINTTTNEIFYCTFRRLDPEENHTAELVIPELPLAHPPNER

COc1nc(-c2cccc(-c3cccc(-c4cnc(CNC[C@@H]5CCS(=O)(=O)N5)c(OC)n4)c3Cl)c2Cl)cnc1CNC[C@@H]1CCS(=O)(=O)N1 [compound 569] and COc1nc(-c2cccc(-c3cccc(-c4cnc(CNCC5CCS(=O)(=O)N5)c(OC)n4)c3Cl)c2Cl)cnc1CNCC1CCS(=O)(=O)N1 (stereo not drawn) [compound 576] are within 1.5-fold of each other in IC50: 0.59 nM for the first, 0.641 nM for the second.

First: COc1nc(-c2cccc(-c3cccc(-c4cnc(CNCCCN5CCCS5(=O)=O)c(OC)n4)c3Cl)c2Cl)cnc1CNCCCN1CCCS1(=O)=O [compound 570]
Second: COc1nc(-c2cccc(-c3cccc(-c4cnc(CNC[C@@H]5CCC(=O)N5)c(OC)n4)c3Cl)c2Cl)cnc1CNCCN1CCCS1(=O)=O [compound 573]
The IC50 of the first is 4.7-fold higher: 0.414 nM for the first, 0.089 nM for the second. The second is the more potent here.

First: COc1nc(-c2cccc(-c3cccc(-c4cnc(CN5CC(NS(N)(=O)=O)C5)c(OC)n4)c3Cl)c2Cl)cnc1CN1CC(NS(N)(=O)=O)C1 [compound 571]
Second: COc1nc(-c2cccc(-c3cccc(-c4cnc(CN5CC(O)C5)c(OC)n4)c3Cl)c2Cl)cnc1CN [compound 594]
The IC50 of the first is 1.9-fold lower: 0.064 nM for the first, 0.12 nM for the second.

CNS(=O)(=O)CCNCc1ncc(-c2cccc(-c3cccc(-c4cnc(CNC[C@@H]5CCC(=O)N5)c(OC)n4)c3Cl)c2Cl)nc1OC [compound 572] and COc1nc(-c2cccc(-c3cccc(-c4cnc(CNC[C@@H]5CCC(=O)N5)c(OC)n4)c3Cl)c2Cl)cnc1CNCCCS(N)(=O)=O [compound 577] are the same in IC50: 0.064 nM for the first, 0.064 nM for the second.

Compared with COc1nc(-c2cccc(-c3cccc(-c4cnc(CN5CC(S(C)(=O)=O)C5)c(OC)n4)c3Cl)c2Cl)cnc1CNC[C@@H]1CCC(=O)N1 [compound 574], COc1nc(-c2cccc(-c3cccc(-c4cnc(CN5CC(C)(N)C5)c(OC)n4)c3Cl)c2Cl)cnc1CNC[C@@H]1CCC(=O)N1 [compound 622] is 2-fold higher in IC50: 0.133 nM for the first, 0.26 nM for the second. The first is the more potent here.

Going from COc1nc(-c2cccc(-c3cccc(-c4cnc(CNCCNS(C)(=O)=O)c(OC)n4)c3Cl)c2Cl)cnc1CNCCNS(C)(=O)=O [compound 575] to CCNC(=O)CNCc1ncc(-c2cccc(-c3cccc(-c4cnc(CNC[C@@H]5CCC(=O)N5)c(OC)n4)c3Cl)c2Cl)nc1OC [compound 578], the IC50 rises from 0.064 nM to 0.182 nM (2.8-fold).

Going from COc1nc(-c2cccc(-c3cccc(-c4cnc(CNC[C@H]5CCOC5)c(OC)n4)c3Cl)c2Cl)cnc1CNC[C@H]1CCOC1 [compound 579] to COc1nc(-c2cccc(-c3cccc(-c4cnc(CNCC5(O)COC5)c(OC)n4)c3Cl)c2Cl)cnc1CNC[C@@H]1CCC(=O)N1 [compound 589], the IC50 falls from 0.782 nM to 0.291 nM (2.7-fold).

First: COc1nc(-c2cccc(-c3cccc(-c4cnc(CN(C)C[C@@H]5CCC(=O)N5)c(OC)n4)c3Cl)c2Cl)cnc1CNC[C@@H]1CCC(=O)N1 [compound 580]
Second: COc1nc(-c2cccc(-c3cccc(-c4cnc(CN[C@@H](C)[C@H]5CCC(=O)N5)c(OC)n4)c3Cl)c2Cl)cnc1CNC[C@@H]1CCC(=O)N1 [compound 598]
The IC50 of the first is 2-fold higher: 0.359 nM for the first, 0.178 nM for the second. The second is the more potent here.

COc1nc(-c2cccc(-c3cccc(-c4cnc(CNC[C@@H]5CCC(=O)N5)c(OC)n4)c3Cl)c2Cl)cnc1CNCC(=O)NC(C)C [compound 581] and COc1nc(-c2cccc(-c3cccc(-c4cnc(CN[C@H](C)[C@@H]5CCC(=O)N5)c(OC)n4)c3Cl)c2Cl)cnc1CNC[C@@H]1CCC(=O)N1 [compound 599] are within 1.5-fold of each other in IC50: 0.201 nM for the first, 0.174 nM for the second.

Compared with COc1nc(-c2cccc(-c3cccc(-c4cnc(C5=NCCN5)c(OC)n4)c3Cl)c2Cl)ccc1CN [compound 582], COc1nc(-c2cccc(-c3cccc(-c4cnc(CN)c(OC)n4)c3Cl)c2Cl)ccc1C1=NCCN1 [compound 583] is 3-fold lower in IC50: 0.19 nM for the first, 0.064 nM for the second. The second is the more potent here.

First: COc1nc(-c2cccc(-c3cccc(-c4cnc(C5=NCCN5)c(OC)n4)c3Cl)c2Cl)cnc1CN [compound 584]
Second: COc1nc(-c2cccc(-c3cccc(-c4cnc(CN5CC(C)(O)C5)c(OC)n4)c3Cl)c2Cl)cnc1CN [compound 596]
The IC50 of the first is 1.5-fold lower: 0.118 nM for the first, 0.181 nM for the second. The first is the more potent here.

First: COc1nc(-c2cccc(-c3cccc(-c4cnc(CN5CC[C@H](C(=O)O)C5)c(OC)n4)c3Cl)c2Cl)cnc1CN [compound 585]
Second: COc1nc(-c2cccc(-c3cccc(-c4cnc(CN5CC[C@H](O)C5)c(OC)n4)c3Cl)c2Cl)cnc1CN [compound 586]
The IC50 of the first is 1.5-fold higher: 0.442 nM for the first, 0.29 nM for the second. The second is the more potent here.

First: COc1nc(-c2cccc(-c3cccc(-c4cnc(CN5CC[C@@H](O)C5)c(OC)n4)c3Cl)c2Cl)cnc1CN [compound 587]
Second: COc1nc(-c2cccc(-c3cccc(-c4cnc(CN5CC6(C5)CN(C(C)=O)C6)c(OC)n4)c3Cl)c2Cl)cnc1CN [compound 597]
The IC50 of the first is 4-fold higher: 0.515 nM for the first, 0.129 nM for the second.

Compared with COc1nc(-c2cccc(-c3cccc(-c4cnc(CNCC5(O)COC5)c(OC)n4)c3Cl)c2Cl)cnc1CNCC1(O)COC1 [compound 588], COc1nc(-c2cccc(-c3cccc(-c4cnc(CN[C@H]5C[C@@](O)(CO)C5)c(OC)n4)c3Cl)c2Cl)cnc1CNC[C@@H]1CCC(=O)N1 [compound 600] is 2.7-fold lower in IC50: 0.17 nM for the first, 0.064 nM for the second.

COc1nc(-c2cccc(-c3cccc(-c4cnc(CN[C@H](C5CC5)[C@@H]5CCC(=O)N5)c(OC)n4)c3Cl)c2Cl)cnc1CN[C@H](C1CC1)[C@@H]1CCC(=O)N1 [compound 590] and COc1nc(-c2cccc(-c3cccc(-c4cnc(CN[C@H](C)[C@@H]5CCC(=O)N5)c(OC)n4)c3Cl)c2Cl)cnc1CN[C@H](C)[C@@H]1CCC(=O)N1 [compound 601] are within 1.5-fold of each other in IC50: 0.131 nM for the first, 0.196 nM for the second.

Going from COc1nc(-c2cccc(-c3cccc(-c4cnc(CN5CC6(CNC(=O)C6)C5)c(OC)n4)c3Cl)c2Cl)cnc1CN [compound 591] to COc1nc(-c2cccc(-c3cccc(-c4cnc(CN5CC6(CCC(=O)N6)C5)c(OC)n4)c3Cl)c2Cl)cnc1CN [compound 595], the IC50 falls from 0.138 nM to 0.064 nM (2.2-fold).

Compared with COc1nc(-c2cccc(-c3cccc(-c4cnc(CNC5CC(C)(O)C5)c(OC)n4)c3Cl)c2Cl)cnc1CN (stereo not drawn) [compound 592], COc1nc(-c2cccc(-c3cccc(-c4cnc(CN5CC(C)(N)C5)c(OC)n4)c3Cl)c2Cl)cnc1CN1CC(C)(N)C1 [compound 621] is 7-fold higher in IC50: 0.151 nM for the first, 1.05 nM for the second. The first is the more potent here.

COc1nc(-c2cccc(-c3cccc(-c4cnc5c(CN6CCC7(CCC(=O)N7)C6)cn(C)c5n4)c3Cl)c2Cl)cnc1CNC[C@H]1CCC(=O)N1 (stereo partly drawn) [compound 602] and COc1nc(-c2cccc(-c3cccc(-c4cnc5c(CN6CC7(CNC(=O)C7)C6)cn(C)c5n4)c3Cl)c2Cl)cnc1CNC[C@H]1CCC(=O)N1 [compound 605] are within 1.5-fold of each other in IC50: 0.145 nM for the first, 0.113 nM for the second.

COc1nc(-c2cccc(-c3cccc(-c4cnc5c(CNC[C@H]6C[C@H](O)C6)cn(C)c5n4)c3Cl)c2Cl)cnc1CNC[C@H]1CCC(=O)N1 [compound 603] and COc1nc(-c2cccc(-c3cccc(-c4cnc5c(CNC[C@@H]6CCC(=O)N6)cn(C)c5n4)c3Cl)c2Cl)cnc1CNC[C@H]1CCC(=O)N1 [compound 606] are within 1.5-fold of each other in IC50: 0.073 nM for the first, 0.077 nM for the second.

COc1nc(-c2cccc(-c3cccc(-c4cnc5c(CN6CC7(C6)CN(C(C)=O)C7)cn(C)c5n4)c3Cl)c2Cl)cnc1CNC[C@H]1CCC(=O)N1 [compound 604] and COc1nc(-c2cccc(-c3cccc(-c4cnc5c(CN6CC7(C6)CN(C(C)=O)C7)cn(C)c5n4)c3Cl)c2Cl)cnc1CN1CC2(C1)CN(C(C)=O)C2 [compound 612] are the same in IC50: 0.064 nM for the first, 0.064 nM for the second.

COc1nc(-c2cccc(-c3cccc(-c4cnc5c(CN6CC7(CNC(=O)C7)C6)cn(C)c5n4)c3Cl)c2Cl)cnc1CN1CC2(CNC(=O)C2)C1 [compound 607] and CCn1cc(CN2CC3(CNC(=O)C3)C2)c2ncc(-c3cccc(-c4cccc(-c5cnc(CN6CC7(CNC(=O)C7)C6)c(OC)n5)c4Cl)c3Cl)nc21 [compound 609] are within 1.5-fold of each other in IC50: 0.064 nM for the first, 0.079 nM for the second.

CCn1cc(CN2CC3(C2)CN(C(C)=O)C3)c2ncc(-c3cccc(-c4cccc(-c5cnc(CN6CC7(C6)CN(C(C)=O)C7)c(OC)n5)c4Cl)c3Cl)nc21 [compound 608] and COc1nc(-c2cccc(-c3cccc(-c4cnc(CN5CC6(C5)CN(C(C)=O)C6)c(OC)n4)c3F)c2Cl)ccc1CN1CC2(C1)CN(C(C)=O)C2 [compound 617] are the same in IC50: 0.064 nM for the first, 0.064 nM for the second.

Compared with CCn1cc(CN2CC3(CCC(=O)N3)C2)c2ncc(-c3cccc(-c4cccc(-c5cnc(CN6CC7(CCC(=O)N7)C6)c(OC)n5)c4Cl)c3Cl)nc21 [compound 610], COc1nc(-c2cccc(-c3cccc(-c4cnc5c(CN6CC7(CCC(=O)N7)C6)cn(C)c5n4)c3Cl)c2Cl)cnc1CN1CC2(CCC(=O)N2)C1 [compound 613] is 1.7-fold lower in IC50: 0.313 nM for the first, 0.182 nM for the second. The second is the more potent here.

CCn1cc(CN2CC(O)C2)c2ncc(-c3cccc(-c4cccc(-c5cnc(CN6CC(O)C6)c(OC)n5)c4Cl)c3Cl)nc21 [compound 611] and COc1nc(-c2cccc(-c3cccc(-c4cnc(CN5CC(O)C5)c(OC)n4)c3F)c2Cl)ccc1CN1CC(O)C1 [compound 619] are within 1.5-fold of each other in IC50: 0.21 nM for the first, 0.178 nM for the second.

First: COc1nc(-c2cccc(-c3cccc(-c4cnc(CNC[C@@H]5CCC(=O)N5)c(OC)n4)c3F)c2Cl)ccc1CNC[C@@H]1CCC(=O)N1 [compound 614]
Second: COc1nc(-c2cccc(-c3cccc(-c4cnc(CNCCO)c(OC)n4)c3F)c2Cl)ccc1CNCCO [compound 615]
The IC50 of the first is 3.7-fold lower: 0.079 nM for the first, 0.291 nM for the second. The first is the more potent here.

Compared with COc1nc(-c2cccc(-c3cccc(-c4cnc(CN5CC[C@@H](CO)C5)c(OC)n4)c3F)c2Cl)ccc1CN1CC[C@@H](CO)C1 [compound 616], COc1nc(-c2cccc(-c3cccc(-c4cnc(CN5CC[C@H](CO)C5)c(OC)n4)c3Cl)c2Cl)cnc1CN1CC[C@H](CO)C1 [compound 624] is 2.2-fold higher in IC50: 0.069 nM for the first, 0.152 nM for the second. The first is the more potent here.

COc1nc(-c2cccc(-c3cccc(-c4cnc(CN5CC6(CCC(=O)N6)C5)c(OC)n4)c3F)c2Cl)ccc1CN1CC2(CCC(=O)N2)C1 [compound 618] and COc1nc(-c2cccc(-c3cccc(-c4cnc(CN5CC[C@H](CO)C5)c(OC)n4)c3Cl)c2Cl)cnc1CNC[C@@H]1CCC(=O)N1 [compound 625] are within 1.5-fold of each other in IC50: 0.064 nM for the first, 0.074 nM for the second.

COc1nc(-c2cccc(-c3cccc(-c4cnc(CNC[C@@H]5CCC(=O)N5)c(OC)n4)c3Cl)c2Cl)cnc1CNCCOc1ccccn1 [compound 620] and COc1nc(-c2cccc(-c3cccc(-c4cnc(CN5CC[C@@H](CO)C5)c(OC)n4)c3Cl)c2Cl)cnc1CNC[C@@H]1CCC(=O)N1 [compound 627] are within 1.5-fold of each other in IC50: 0.101 nM for the first, 0.081 nM for the second.

With COc1nc(-c2cccc(-c3cccc(-c4cnc(CN5CC[C@@H](CO)C5)c(OC)n4)c3Cl)c2Cl)cnc1CN1CC[C@@H](CO)C1 [compound 626] the IC50 was 0.064 nM.
